Reference: patent US20150320892A1, “IMAGING FIBROSIS” (GE Healthcare Limited, priority 2012, published 2015)
Where a name gives a salt, the structure may show the parent alone.

Legend:
[1] = Biodistribution of 99mTc-Compound 2 in naive rats; design: species or system Male Sprague-Dawley rats; settings: rat
Protocol: Male Sprague-Dawley rats (231±10 g) were group housed in batches of four, with ad libitum access to food and water. […] At various times post injection (2, 30, 60 and 120 minutes) animals were euthanised (n=3 per timepoint), dissected.
Data above are presented as % injected dose (mean±SD; n=3 animals per timepoint).

[2] = Metabolism study of Compound 2 in naive rats (plasma, HPLC); type: in vivo, male rats
Protocol: The in vivo metabolic profile of Compound 2 was determined after intravenous administration to male rats. Post mortem blood was obtained at 60 minutes post injection and centrifuged to separate plasma.
Analysis was carried out by HPLC with prior extraction of Compound 2 from plasma using solid phase extraction (HLB cartridges; Waters). Briefly, cartridges were conditioned with 5 ml, acetonitrile, followed by 2×5 mL water. Plasma was loaded onto the cartridge and then washed with water (2% acetonitrile). Compound 2 was eluted from the cartridge with 7.5 mL water (0.1% TFA) with acetonitrile (0.1% TFA) as a 50:50 ratio.
The extract was evaporated to dryness and reconstituted in 2 mL starting mobile phase (4% acetonitrile (0.1% TFA) and water (0.1% TFA).
0.5 mL of the reconstituted extract anlaysed by HPLC using the same analytical conditions as mentioned above in Example 3 for Compound 2.

[3] = target: T1, recombinant human FAP (Homo sapiens, UniProt Q12884); experiment: FAP assay kit (BPS Bioscience), inhibition of enzymatic activity, Gly-Pro-AMC fluorogenic substrate; type: biochemical; settings: for IC50: recombinant human FAP, 30 min, 22° C
T1 construct: purchased BPS Bioscience
T1 sequence (Q12884 1-760): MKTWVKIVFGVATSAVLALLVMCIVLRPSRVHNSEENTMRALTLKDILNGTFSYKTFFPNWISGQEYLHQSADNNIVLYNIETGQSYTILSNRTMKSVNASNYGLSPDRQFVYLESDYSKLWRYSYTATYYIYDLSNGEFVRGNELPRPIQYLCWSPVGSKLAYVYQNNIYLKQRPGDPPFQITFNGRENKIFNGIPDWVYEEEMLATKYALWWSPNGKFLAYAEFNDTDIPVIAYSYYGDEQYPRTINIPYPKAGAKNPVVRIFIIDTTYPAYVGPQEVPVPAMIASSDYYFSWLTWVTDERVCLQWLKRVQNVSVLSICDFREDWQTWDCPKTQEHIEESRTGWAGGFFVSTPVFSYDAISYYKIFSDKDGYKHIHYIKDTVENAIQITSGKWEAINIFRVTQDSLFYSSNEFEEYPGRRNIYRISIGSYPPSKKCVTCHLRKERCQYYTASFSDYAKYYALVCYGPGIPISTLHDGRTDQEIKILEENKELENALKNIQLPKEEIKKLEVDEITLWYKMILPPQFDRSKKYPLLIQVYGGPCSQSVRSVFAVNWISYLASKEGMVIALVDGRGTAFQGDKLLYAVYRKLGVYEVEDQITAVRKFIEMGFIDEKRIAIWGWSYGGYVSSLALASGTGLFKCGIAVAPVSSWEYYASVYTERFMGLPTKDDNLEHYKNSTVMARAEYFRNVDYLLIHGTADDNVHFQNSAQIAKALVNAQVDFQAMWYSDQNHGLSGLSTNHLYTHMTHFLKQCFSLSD
Protocol: (§1) The assay uses the fluorogenic substrate Gly-Pro-Aminomethylcoumarin (AMC) to measure either FAP or DPP-IV activity.
(§2) The enzyme activities were assayed in a total volume of 100 uL for 10 min (DPP-IV) and 30 min (FAP) at 22° C. The inhibitors were dissolved in DMSO. IC50 values were computed using GraphPad Prism 4.

[4] = target: T2, recombinant human DPP-IV (Homo sapiens, UniProt P27487); experiment: DPP-IV assay kit (BPS Bioscience), inhibition of enzymatic activity, Gly-Pro-AMC fluorogenic substrate; type: biochemical; settings: 10 min, 22° C
T2 construct: purchased BPS Bioscience
Protocol: as §1, §2

T2 sequence (P27487 whole entry): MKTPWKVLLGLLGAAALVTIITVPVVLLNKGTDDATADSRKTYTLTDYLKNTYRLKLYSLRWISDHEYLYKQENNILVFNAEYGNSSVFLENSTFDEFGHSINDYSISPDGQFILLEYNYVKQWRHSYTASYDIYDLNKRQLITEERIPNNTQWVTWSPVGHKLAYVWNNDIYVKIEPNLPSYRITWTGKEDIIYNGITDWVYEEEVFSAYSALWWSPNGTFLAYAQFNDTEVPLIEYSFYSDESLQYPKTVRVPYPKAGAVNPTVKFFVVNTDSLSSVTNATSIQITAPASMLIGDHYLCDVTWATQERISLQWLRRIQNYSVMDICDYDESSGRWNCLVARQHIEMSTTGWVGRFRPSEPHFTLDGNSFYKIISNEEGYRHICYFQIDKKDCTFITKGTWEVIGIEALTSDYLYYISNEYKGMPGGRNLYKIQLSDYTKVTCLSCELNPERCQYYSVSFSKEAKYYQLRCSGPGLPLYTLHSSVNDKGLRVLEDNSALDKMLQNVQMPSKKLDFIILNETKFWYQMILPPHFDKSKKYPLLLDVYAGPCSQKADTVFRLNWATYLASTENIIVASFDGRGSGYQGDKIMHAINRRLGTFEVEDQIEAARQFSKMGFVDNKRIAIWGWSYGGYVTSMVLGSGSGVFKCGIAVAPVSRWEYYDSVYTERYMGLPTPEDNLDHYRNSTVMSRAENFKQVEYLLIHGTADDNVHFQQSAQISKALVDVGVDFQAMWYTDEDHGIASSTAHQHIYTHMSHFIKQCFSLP

| Molecule | IC50 [3] [µM] | IC50 [4] [µM] | also measured |
| --- | --- | --- | --- |
| NCCNCC(CNCCN)CC(=O)NCCCCCC(=O)NCC(=O)N1CCC[C@H]1B(O)O [Compound 2, (R) (1-(2-(6-(4-((2-aminoethyl)amino)-3-(((2-aminoethyl)amino)methyl)butanamido)hexanamido)acetyl)pyrrolidin-2-yl)boronic acid] |  |  | biodistribution for in vivo imaging purposes (in words) [1]: good biodistribution; Compound 2 still present in the plasma sample ([2]; male rats, intravenous, plasma 60 minutes after injection): Approximately 80%; in vivo metabolic profile (in words) ([2]; rat, in vivo): good in vivo metabolic profile |
| N#Cc1ccc(NCCNCC(=O)N2CCCC2C#N)nc1 (centres unmarked) [DPP-IV reference, NVP DPP 728 hydrochloride, reference compound] | > 100 |  |  |
| O=C(NCC(=O)N1CCC[C@H]1B(O)O)c1cccc2ccccc12 [FAP reference, (R)-(1-(2-(1-naphthamido)acetyl)pyrrolidin-2-yl)boronic acid, reference compound] |  | > 50 |  |
| (R)-(1-(2-(6-(4-((2-aminoethyl)amino)-3-(((2-aminoethyl)amino)methyl)butanamido)hexanamido)acetyl)pyrrolidin-2-yl)boronic acid, dioxorhenium(V)salt [Compound 1] | 0.009 | > 50 | affinity for FAP (in words) ([3]; in vitro assay): high and selective affinity for FAP |
